Source: the supplement of paper PMC10307832

Assays:
Assay in all cases: relative viability (nuclei count vs DMSO), 5 days (fraction); higher = more cells survive
NCI-H2023 = tested on: NCI-H2023
In short: (§1)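 Five library-drug doses in √10 steps were combined with a fixed anchor-drug dose, or a single drug was given alone, by pin tool to lung cancer cell lines in 1536-well plates the day after seeding. Nuclei were stained and counted after 5 days. Relative viability is the nuclei count in treated wells over that in vehicle wells, taken as the median of duplicate plates.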

NCI-H1993 = tested on: NCI-H1993
In short: as §1

NCI-H650 = tested on: NCI-H650
In short: as §1

NCI-H1395 = tested on: NCI-H1395
In short: as §1

LOU-NH91 = tested on: LOU-NH91
In short: as §1

NCI-H1975 = tested on: NCI-H1975
In short: as §1

NCI-H2228 = tested on: NCI-H2228
In short: as §1

NCI-H2405 = tested on: NCI-H2405
In short: as §1

LU99A = tested on: LU99A
In short: as §1

NCI-H460 = tested on: NCI-H460
In short: as §1

SW 1573 = tested on: SW 1573
In short: as §1

NCI-H1915 = tested on: NCI-H1915
In short: as §1

A-427 = tested on: A-427
In short: as §1

HARA = tested on: HARA
In short: as §1

RERF-LC-KJ = tested on: RERF-LC-KJ
In short: as §1

EKVX = tested on: EKVX
In short: as §1

BEN = tested on: BEN
In short: as §1

NCI-H1793 = tested on: NCI-H1793
In short: as §1

COR-L23 = tested on: COR-L23
In short: as §1

NCI-H838 = tested on: NCI-H838
In short: as §1

NCI-H1650 = tested on: NCI-H1650
In short: as §1

NCI-H1666 = tested on: NCI-H1666
In short: as §1

With `COCC1(CO)C(=O)C2CCN1CC2` (configuration not stated) [PRIMA-1MET] + CCNC(=O)c1noc(-c2cc(C(C)C)c(O)cc2O)c1-c1ccc(CN2CCOCC2)cc1 [Luminespib] (partner 0.01 µM) as the compound, how does the relative viability (NCI-H2023; first compound 0.2 µM) read?
Its relative viability is 0.957.

And the relative viability (NCI-H2023; first compound 0.6325 µM)?
The relative viability was 0.85.

What about the relative viability (NCI-H2023; first compound 2 µM) of the same compound?
The relative viability was 0.745.

And the relative viability (NCI-H2023; first compound 6.325 µM)?
The relative viability was 0.685.

And the relative viability (NCI-H2023; first compound 20 µM)?
Its relative viability is 0.642.

And the relative viability (NCI-H1993; first compound 0.2 µM)?
Its relative viability is 1.04.

What about the relative viability (NCI-H1993; first compound 0.6325 µM) of the same compound?
The relative viability was 0.829.

What about the relative viability (NCI-H1993; first compound 2 µM) of the same compound?
Its relative viability is 0.959.

And the relative viability (NCI-H1993; first compound 6.325 µM)?
The relative viability was 0.996.

And the relative viability (NCI-H1993; first compound 20 µM)?
Its relative viability is 0.758.

And the relative viability (NCI-H650; first compound 0.2 µM)?
Its relative viability is 1.19.

What about the relative viability (NCI-H650; first compound 2 µM) of the same compound?
Its relative viability is 0.666.

What about the relative viability (NCI-H650; first compound 6.325 µM) of the same compound?
Its relative viability is 0.746.

And the relative viability (NCI-H650; first compound 20 µM)?
Its relative viability is 0.373.

And the relative viability (NCI-H1395; first compound 0.2 µM)?
The relative viability was 0.845.

And the relative viability (NCI-H1395; first compound 0.6325 µM)?
Its relative viability is 0.676.

What about the relative viability (NCI-H1395; first compound 2 µM) of the same compound?
Its relative viability is 0.677.

And the relative viability (NCI-H1395; first compound 6.325 µM)?
The relative viability was 0.603.

What about the relative viability (NCI-H1395; first compound 20 µM) of the same compound?
Its relative viability is 0.406.

What about the relative viability (LOU-NH91; first compound 0.2 µM) of the same compound?
The relative viability was 0.347.

What about the relative viability (LOU-NH91; first compound 0.6325 µM) of the same compound?
Its relative viability is 0.353.

What about the relative viability (LOU-NH91; first compound 2 µM) of the same compound?
Its relative viability is 0.365.

And the relative viability (LOU-NH91; first compound 6.325 µM)?
The relative viability was 0.42.

And the relative viability (LOU-NH91; first compound 20 µM)?
The relative viability was 0.265.

What about the relative viability (NCI-H1975; first compound 0.2 µM) of the same compound?
The relative viability was 0.33.

What about the relative viability (NCI-H1975; first compound 0.6325 µM) of the same compound?
Its relative viability is 0.171.

What about the relative viability (NCI-H1975; first compound 2 µM) of the same compound?
The relative viability was 0.21.

What about the relative viability (NCI-H1975; first compound 6.325 µM) of the same compound?
The relative viability was 0.252.

And the relative viability (NCI-H1975; first compound 20 µM)?
The relative viability was 0.154.

And the relative viability (NCI-H2228; first compound 0.2 µM)?
Its relative viability is 0.212.

And the relative viability (NCI-H2228; first compound 0.6325 µM)?
The relative viability was 0.139.

And the relative viability (NCI-H2228; first compound 2 µM)?
The relative viability was 0.0997.

And the relative viability (NCI-H2228; first compound 6.325 µM)?
Its relative viability is 0.192.

What about the relative viability (NCI-H2228; first compound 20 µM) of the same compound?
Its relative viability is 0.056.

And the relative viability (NCI-H2405; first compound 0.2 µM)?
The relative viability was 0.65.

What about the relative viability (NCI-H2405; first compound 0.6325 µM) of the same compound?
The relative viability was 0.598.

And the relative viability (NCI-H2405; first compound 6.325 µM)?
Its relative viability is 0.688.

And the relative viability (NCI-H2405; first compound 20 µM)?
The relative viability was 0.249.

And the relative viability (LU99A; first compound 0.2 µM)?
Its relative viability is 0.216.

And the relative viability (LU99A; first compound 0.6325 µM)?
Its relative viability is 0.233.

And the relative viability (LU99A; first compound 2 µM)?
The relative viability was 0.203.

What about the relative viability (LU99A; first compound 6.325 µM) of the same compound?
Its relative viability is 0.221.

And the relative viability (LU99A; first compound 20 µM)?
The relative viability was 0.0965.

What about the relative viability (NCI-H460; first compound 0.2 µM) of the same compound?
The relative viability was 0.0337.

And the relative viability (NCI-H460; first compound 0.6325 µM)?
The relative viability was 0.0272.

And the relative viability (NCI-H460; first compound 2 µM)?
The relative viability was 0.0258.

What about the relative viability (NCI-H460; first compound 6.325 µM) of the same compound?
The relative viability was 0.0312.

And the relative viability (NCI-H460; first compound 20 µM)?
Its relative viability is 0.0174.

What about the relative viability (SW 1573; first compound 0.2 µM) of the same compound?
Its relative viability is 0.233.

And the relative viability (SW 1573; first compound 2 µM)?
The relative viability was 0.214.

And the relative viability (SW 1573; first compound 6.325 µM)?
Its relative viability is 0.0379.

And the relative viability (SW 1573; first compound 20 µM)?
Its relative viability is 0.0227.

What about the relative viability (NCI-H1915; first compound 0.2 µM) of the same compound?
The relative viability was 0.868.

What about the relative viability (NCI-H1915; first compound 0.6325 µM) of the same compound?
The relative viability was 0.506.

What about the relative viability (NCI-H1915; first compound 6.325 µM) of the same compound?
Its relative viability is 0.853.

What about the relative viability (NCI-H1915; first compound 20 µM) of the same compound?
Its relative viability is 0.697.

What about the relative viability (A-427; first compound 0.2 µM) of the same compound?
The relative viability was 1.19.

What about the relative viability (A-427; first compound 0.6325 µM) of the same compound?
The relative viability was 0.717.

And the relative viability (A-427; first compound 2 µM)?
Its relative viability is 0.714.

And the relative viability (A-427; first compound 6.325 µM)?
Its relative viability is 0.763.

What about the relative viability (A-427; first compound 20 µM) of the same compound?
The relative viability was 0.58.

What about the relative viability (HARA; first compound 0.2 µM) of the same compound?
The relative viability was 0.619.

What about the relative viability (HARA; first compound 0.6325 µM) of the same compound?
Its relative viability is 0.0534.

And the relative viability (HARA; first compound 6.325 µM)?
Its relative viability is 0.675.

What about the relative viability (HARA; first compound 20 µM) of the same compound?
Its relative viability is 0.654.

What about the relative viability (RERF-LC-KJ; first compound 0.2 µM) of the same compound?
The relative viability was 1.42.

What about the relative viability (RERF-LC-KJ; first compound 0.6325 µM) of the same compound?
The relative viability was 1.29.

And the relative viability (RERF-LC-KJ; first compound 2 µM)?
Its relative viability is 1.36.

What about the relative viability (RERF-LC-KJ; first compound 6.325 µM) of the same compound?
Its relative viability is 1.37.

And the relative viability (RERF-LC-KJ; first compound 20 µM)?
Its relative viability is 1.03.

And the relative viability (EKVX; first compound 0.2 µM)?
Its relative viability is 1.03.

What about the relative viability (EKVX; first compound 0.6325 µM) of the same compound?
Its relative viability is 0.808.

And the relative viability (EKVX; first compound 6.325 µM)?
The relative viability was 0.805.

And the relative viability (EKVX; first compound 20 µM)?
The relative viability was 0.729.

What about the relative viability (BEN; first compound 0.2 µM) of the same compound?
The relative viability was 0.35.

And the relative viability (BEN; first compound 0.6325 µM)?
Its relative viability is 0.276.

And the relative viability (BEN; first compound 6.325 µM)?
Its relative viability is 0.24.

And the relative viability (BEN; first compound 20 µM)?
Its relative viability is 0.18.

And the relative viability (NCI-H1793; first compound 0.2 µM)?
The relative viability was 0.138.

What about the relative viability (NCI-H1793; first compound 0.6325 µM) of the same compound?
The relative viability was 0.177.

And the relative viability (NCI-H1793; first compound 6.325 µM)?
Its relative viability is 0.195.

And the relative viability (NCI-H1793; first compound 20 µM)?
Its relative viability is 0.159.

And the relative viability (COR-L23; first compound 0.2 µM)?
The relative viability was 0.691.

And the relative viability (COR-L23; first compound 0.6325 µM)?
Its relative viability is 0.528.

And the relative viability (COR-L23; first compound 2 µM)?
The relative viability was 0.711.

What about the relative viability (COR-L23; first compound 6.325 µM) of the same compound?
Its relative viability is 0.578.

And the relative viability (COR-L23; first compound 20 µM)?
The relative viability was 0.0159.

What about the relative viability (NCI-H838; first compound 0.2 µM) of the same compound?
Its relative viability is 0.315.

What about the relative viability (NCI-H838; first compound 0.6325 µM) of the same compound?
The relative viability was 0.194.

What about the relative viability (NCI-H838; first compound 2 µM) of the same compound?
Its relative viability is 0.298.

What about the relative viability (NCI-H838; first compound 6.325 µM) of the same compound?
Its relative viability is 0.284.

What about the relative viability (NCI-H838; first compound 20 µM) of the same compound?
The relative viability was 0.189.

And the relative viability (NCI-H1650; first compound 0.2 µM)?
The relative viability was 0.228.

And the relative viability (NCI-H1650; first compound 0.6325 µM)?
The relative viability was 0.212.

What about the relative viability (NCI-H1650; first compound 2 µM) of the same compound?
The relative viability was 0.185.

And the relative viability (NCI-H1650; first compound 6.325 µM)?
The relative viability was 0.193.

And the relative viability (NCI-H1650; first compound 20 µM)?
The relative viability was 0.123.

What about the relative viability (NCI-H1666; first compound 0.2 µM) of the same compound?
Its relative viability is 1.02.

And the relative viability (NCI-H1666; first compound 0.6325 µM)?
Its relative viability is 0.714.

And the relative viability (NCI-H1666; first compound 2 µM)?
Its relative viability is 0.906.

What about the relative viability (NCI-H1666; first compound 6.325 µM) of the same compound?
The relative viability was 1.03.

And the relative viability (NCI-H1666; first compound 20 µM)?
The relative viability was 0.85.
